≈ marks a conversion by molar mass, not a printed value. Where “and” joins values, the source holds several entries; their conditions need not be identical. Identical values can stand only once. Like-named read-outs stand apart in the source and are kept apart here.
Tests used:
[1] = system: non-MRSA S. aureus MK01 and KC01; test: MBC (CLSI methodology), Example 8; type: cell-based, Staphylococcus aureus
[2] = system: S. aureus clinical isolates (MRSA and MSSA); test: Minimum bactericidal concentration (MBC), Example 4; type: cell-based, Staphylococcus aureus; settings: for MBC: Staphylococcus aureus
From the text: The MBC was defined as the lowest drug concentration at which 99.95% of the original inoculum was eliminated.

[3] = system: VRE; test: Broth microdilution MIC, Example 7 (NCL812 and analogues); type: cell-based, Enterococcus spp.; settings: Enterococcus, VRE
Summary of the method: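 MICs in μg/ml were read as growth inhibition by eye, checked at 600 nm absorbance against drug-free wells, following CLSI broth microdilution. Strains: two MRSA, two VRE; duplicates, repeated once more when results diverged beyond one dilution step.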

N=C(N/N=C/c1ccc(Cl)cc1)N/N=C/c1ccc(Cl)cc1 [NCL812, 1,3-bis[(E)-(4-chlorophenyl)methyleneamino]guanidine]
NCL812 MBC test, growth on Sheep Blood Agar ([1]; S. aureus (KC01), 2 μg/ml): + | NCL812 MBC test, growth on Sheep Blood Agar ([1]; S. aureus (KC01), 4 μg/ml): + and 0 | NCL812 MBC test, growth on Sheep Blood Agar ([1]; S. aureus (KC01), 8 μg/ml): + and 0 | NCL812 MBC test, growth on Sheep Blood Agar ([1]; S. aureus (KC01), 16 μg/ml): 0 | NCL812 MBC test, growth on Sheep Blood Agar ([1]; S. aureus (KC01), 32 μg/ml): 0 | NCL812 MBC test, growth on Sheep Blood Agar ([1]; S. aureus (KC01), 64 μg/ml): 0 | NCL812 MBC test, growth on Sheep Blood Agar ([1]; S. aureus (KC01), […]): 0 | NCL812 MBC test, growth on Sheep Blood Agar ([1]; S. aureus (MK01), 2 μg/ml): 0 | Number of Bacteria Growing after 24 hours per ml of sample ([1]; S. aureus (MK01), 2 μg/ml): 5 CFU/ml | NCL812 MBC test, growth on Sheep Blood Agar ([1]; S. aureus (MK01), 4 μg/ml): 0 | NCL812 MBC test, growth on Sheep Blood Agar ([1]; S. aureus (MK01), 8 μg/ml): 0 | NCL812 MBC test, growth on Sheep Blood Agar ([1]; S. aureus (MK01), 16 μg/ml): 0 (N) and 0 | NCL812 MBC test, growth on Sheep Blood Agar ([1]; S. aureus (MK01), 32 μg/ml): 0 (N) and 0 | NCL812 MBC test, growth on Sheep Blood Agar ([1]; S. aureus (MK01), 64 μg/ml): 0 (N) and 0 | MBC test outcome ([1]; S. aureus MK01 and KC01, no growth, or growth only at 2 μg/ml): bactericidal | S. aureus isolates with MBC equivalent to the MIC ([2]; 30 isolates): 93.33% | MBCrange ([2]; CA-MRSA (n = 10)): 2 to 4 µg/mL | MBCrange ([2]; HA-MRSA (n = 10)): 4 to 8 µg/mL | MBCrange ([2]; Methicillin-susceptible staphylococci (n = 10)): 2 to 8 µg/mL | MBC ([2]; CA-MRSA (n = 10), read-out: MBC50): 4 µg/mL (≈ 12 µM) | MBC ([2]; CA-MRSA (n = 10), read-out: MBC90): 4 µg/mL (≈ 12 µM) | MBC ([2]; HA-MRSA (n = 10), read-out: MBC50): 8 µg/mL (≈ 23.9 µM) | MBC ([2]; HA-MRSA (n = 10), read-out: MBC90): 8 µg/mL (≈ 23.9 µM) | MBC ([2]; Methicillin-susceptible staphylococci (n = 10), read-out: MBC50): 4 µg/mL (≈ 12 µM) | MBC ([2]; Methicillin-susceptible staphylococci (n = 10), read-out: MBC90): 8 µg/mL (≈ 23.9 µM) | MBC ([2]; Total bacterial isolates (n = 30), read-out: MBC50): 4 µg/mL (≈ 12 µM) | MBC ([2]; Total bacterial isolates (n = 30), read-out: MBC90): 8 µg/mL (≈ 23.9 µM) | MBCrange ([2]; Total bacterial isolates (n = 30)): 2 to 8 µg/mL | MIC ([3]; 24 h, read-out: MIC (μg/ml) at 24 hours, VRE 1, isolate VRE 1, 24 hours, 1st and 2nd replicate rows): 2 µg/mL (≈ 5.98 µM) | MIC ([3]; 24 h, read-out: MIC (μg/ml) at 24 hours, VRE 2, isolate VRE 2, 24 hours, 1st and 2nd replicate rows): 2 µg/mL (≈ 5.98 µM) | MIC ([3]; VRE 002 [H12c], Phase I, 1st, read-out: MIC): 4 µg/mL (≈ 12 µM) | MIC ([3]; VRE 002 [H12c], Phase I, 2nd, read-out: MIC): 4 µg/mL (≈ 12 µM) | MIC ([3]; VRE 002 [H12c], Phase II, 1st, read-out: MIC): 2 µg/mL (≈ 5.98 µM) | MIC ([3]; VRE 002 [H12c], Phase II, 2nd, read-out: MIC): 2 µg/mL (≈ 5.98 µM) | MIC ([3]; VRE 003 [H14t], Phase I, 1st, read-out: MIC): 2 µg/mL (≈ 5.98 µM) | MIC ([3]; VRE 003 [H14t], Phase I, 2nd, read-out: MIC): 2 µg/mL (≈ 5.98 µM) | MIC ([3]; VRE 003 [H14t], Phase II, 1st, read-out: MIC): 2 µg/mL (≈ 5.98 µM) | MIC ([3]; VRE 003 [H14t], Phase II, 2nd, read-out: MIC): 2 µg/mL (≈ 5.98 µM) | MIC ([3]; VRE 004 [H16c], Phase I, 1st, read-out: MIC): 4 µg/mL (≈ 12 µM) | MIC ([3]; VRE 004 [H16c], Phase I, 2nd, read-out: MIC): 4 µg/mL (≈ 12 µM) | MIC ([3]; VRE 004 [H16c], Phase II, 1st, read-out: MIC): 2 µg/mL (≈ 5.98 µM) | MIC ([3]; VRE 004 [H16c], Phase II, 2nd, read-out: MIC): 2 µg/mL (≈ 5.98 µM) | MIC ([3]; VRE 005 [H17c], Phase I, 1st, read-out: MIC): 2 µg/mL (≈ 5.98 µM) | MIC ([3]; VRE 005 [H17c], Phase I, 2nd, read-out: MIC): 2 µg/mL (≈ 5.98 µM) | MIC ([3]; VRE 005 [H17c], Phase II, 1st, read-out: MIC): 2 µg/mL (≈ 5.98 µM) | MIC ([3]; VRE 005 [H17c], Phase II, 2nd, read-out: MIC): 2 µg/mL (≈ 5.98 µM) | MIC ([3]; VRE 006 [H19t], Phase I, 1st, read-out: MIC): 2 µg/mL (≈ 5.98 µM) | MIC ([3]; VRE 006 [H19t], Phase I, 2nd, read-out: MIC): 2 µg/mL (≈ 5.98 µM) | MIC ([3]; VRE 006 [H19t], Phase II, 1st, read-out: MIC): 2 µg/mL (≈ 5.98 µM) | MIC ([3]; VRE 006 [H19t], Phase II, 2nd, read-out: MIC): 2 µg/mL (≈ 5.98 µM) | MIC ([3]; VRE 007 [H23c], Phase I, 1st, read-out: MIC): 4 µg/mL (≈ 12 µM) | MIC ([3]; VRE 007 [H23c], Phase I, 2nd, read-out: MIC): 4 µg/mL (≈ 12 µM) | MIC ([3]; VRE 007 [H23c], Phase II, 1st, read-out: MIC): 2 µg/mL (≈ 5.98 µM)
